How the values were obtained:
[1] = target: T1, human TRPV1 (hTRPV1) (Homo sapiens, UniProt Q8NER1); assay: Evaluation of human pH inhibitory activity in hTRPV1-HEK recombinant cells; format: cell-based; conditions: inhibition of activation at final pH 6.0, test substance 3 μM
T1 construct: host or cells: HEK (PrecisION hTRPV1-HEK recombinant cell line)
Description: Evaluation of Human pH Inhibitory Activity
PrecisION™ hTRPV1-HEK recombinant cells (CYL3063) were purchased from Millipore and used. After culturing the above cells under the conditions of 37° C. and 5% CO2, the cells were inoculated in a 96-well plate at the density of 5×10^4 cells/well, followed by culture for 16 hours. Then, the medium was removed and 100 uL of a staining solution was put into each well, followed by culture for 30 minutes under the conditions of 37° C. and 5% CO2. After 30 minutes, all of the existing staining solution was removed and replaced with 100 uL of HBSS. Thereafter, the cells were acclimatized to room temperature for 15 minutes, and the test substances (example compounds and comparative example compounds of the present invention) were added to each well, followed by culture at room temperature for 15 minutes. Then, the final pH was adjusted to 6.0 using MES, and fluorescence was measured (ex485/em535). In the pH assay, the efficacy of the drug was evaluated using BCTC as a TRPV1 antagonist.

[2] = target: T1, human TRPV1 (hTRPV1); assay: Ca2+ influx assay, antagonism against capsaicin in hTRPV1-HEK recombinant cells; format: cell-based; conditions: capsaicin 10 nM as activator, Fluo4-NW fluorescence, read-out: hTRPV1 IC50 [cap]

T1 sequence (Q8NER1 whole entry): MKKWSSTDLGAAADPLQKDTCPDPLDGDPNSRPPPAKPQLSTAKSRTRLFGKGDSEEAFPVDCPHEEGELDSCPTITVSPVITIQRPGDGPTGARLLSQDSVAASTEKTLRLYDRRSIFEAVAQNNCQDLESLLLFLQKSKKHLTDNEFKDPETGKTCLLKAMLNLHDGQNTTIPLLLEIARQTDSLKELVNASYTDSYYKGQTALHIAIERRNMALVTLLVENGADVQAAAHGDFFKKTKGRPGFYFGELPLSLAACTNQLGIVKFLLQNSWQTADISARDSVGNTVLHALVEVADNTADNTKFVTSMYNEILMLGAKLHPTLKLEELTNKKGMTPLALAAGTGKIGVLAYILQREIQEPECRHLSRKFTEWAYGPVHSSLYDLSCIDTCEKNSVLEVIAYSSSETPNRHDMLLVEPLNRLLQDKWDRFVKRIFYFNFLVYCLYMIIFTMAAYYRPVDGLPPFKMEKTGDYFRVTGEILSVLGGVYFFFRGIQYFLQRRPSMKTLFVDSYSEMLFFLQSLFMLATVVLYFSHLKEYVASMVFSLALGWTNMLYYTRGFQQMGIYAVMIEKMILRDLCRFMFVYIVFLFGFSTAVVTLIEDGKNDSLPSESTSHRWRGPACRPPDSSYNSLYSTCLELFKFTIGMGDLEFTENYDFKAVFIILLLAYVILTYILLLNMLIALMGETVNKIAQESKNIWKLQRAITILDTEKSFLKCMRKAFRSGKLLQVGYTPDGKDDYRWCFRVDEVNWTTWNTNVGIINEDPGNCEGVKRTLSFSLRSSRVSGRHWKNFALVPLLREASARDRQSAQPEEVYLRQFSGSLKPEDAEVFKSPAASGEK

hTRPV1 pH (%, 3 μM) [1] [%]	IC50 [2] [nM]	Structure (SMILES)
78.62	37	CC1CCN(c2nc(C(F)(F)F)ccc2/C=C/C(=O)Nc2cccc3[nH]c(=O)[nH]c23)CC1 [Example 1, (E)-3-(2-(4-methylpiperidin-1-yl)-6-(trifluoromethyl)pyridin-3-yl)-N-(2-oxo-2,3-dihydro-1H-benzo[d]imidazol-4-yl)acrylamide]
86.72	28.8	CCC1CCN(c2nc(C(F)(F)F)ccc2/C=C/C(=O)Nc2cccc3[nH]c(=O)[nH]c23)CC1 [Example 2, (E)-3-(2-(4-ethylpiperidin-1-yl)-6-(trifluoromethyl)pyridin-3-yl)-N-(2-oxo-2,3-dihydro-1H-benzo[d]imidazol-4-yl)acrylamide]
94.79	16.3	O=C(/C=C/c1ccc(C(F)(F)F)nc1N1CCOCC1)Nc1cccc2[nH]c(=O)[nH]c12 [Example 5, (E)-3-(2-morpholino-6-(trifluoromethyl)pyridin-3-yl)-N-(2-oxo-2,3-dihydro-1H-benzo[d]imidazol-4-yl)acrylamide]
76.92	10.7	CCN(CC)c1nc(C(F)(F)F)ccc1/C=C/C(=O)Nc1cccc2[nH]c(=O)[nH]c12 [Example 6, (E)-3-(2-(diethylamino)-6-(trifluoromethyl)pyridin-3-yl)-N-(2-oxo-2,3-dihydro-1H-benzo[d]imidazol-4-yl)acrylamide]
89.87	23.3	CCCN(CCC)c1nc(C(F)(F)F)ccc1/C=C/C(=O)Nc1cccc2[nH]c(=O)[nH]c12 [Example 7, (E)-3-(2-(dipropylamino)-6-(trifluoromethyl)pyridin-3-yl)-N-(2-oxo-2,3-dihydro-1H-benzo[d]imidazol-4-yl)acrylamide]
–	> 50	CCCCCCOc1nc(C(F)(F)F)ccc1/C=C/C(=O)Nc1cccc2[nH]c(=O)[nH]c12 [Example 9, (E)-3-(2-(hexyloxy)-6-(trifluoromethyl)pyridin-3-yl)-N-(2-oxo-2,3-dihydro-1H-benzo[d]imidazol-4-yl)acrylamide]
81.25	31.5	O=C(/C=C/c1ccc(C(F)(F)F)nc1OC1CCCC1)Nc1cccc2[nH]c(=O)[nH]c12 [Example 12, (E)-3-(2-(cyclopentyloxy)-6-(trifluoromethyl)pyridin-3-yl)-N-(2-oxo-2,3-dihydro-1H-benzo[d]imidazol-4-yl)acrylamide]
94.03	34.5	O=C(/C=C/c1ccc(C(F)(F)F)nc1OCC(F)(F)F)Nc1cccc2[nH]c(=O)[nH]c12 [Example 14, (E)-N-(2-oxo-2,3-dihydro-1H-benzo[d]imidazol-4-yl)-3-(2-(2,2,2-trifluoroethoxy)-6-(trifluoromethyl)pyridin-3-yl)acrylamide]
–	202	CC(C)(C)COc1nc(C(F)(F)F)ccc1/C=C/C(=O)Nc1cccc2[nH]c(=O)[nH]c12 [Example 15, (E)-3-(2-(neopentyloxy)-6-(trifluoromethyl)pyridin-3-yl)-N-(2-oxo-2,3-dihydro-1H-benzo[d]imidazol-4-yl)acrylamide]
97.34	86	CC1CC1COc1nc(C(F)(F)F)ccc1/C=C/C(=O)Nc1cccc2[nH]c(=O)[nH]c12 (centres unmarked) [Example 16, (E)-3-(2-((2-methylcyclopropyl)methoxy)-6-(trifluoromethyl)pyridin-3-yl)-N-(2-oxo-2,3-dihydro-1H-benzo[d]imidazol-4-yl)acrylamide]
–	117	O=C(/C=C/c1ccc(C2CC2)nc1OCC1CC1)Nc1cccc2[nH]c(=O)[nH]c12 [Example 18, (E)-3-(6-cyclopropyl-2-(cyclopropylmethoxy)pyridin-3-yl)-N-(2-oxo-2,3-dihydro-1H-benzo[d]imidazol-4-yl)acrylamide]
–	410	CC(C)c1ccc(/C=C/C(=O)Nc2cccc3[nH]c(=O)[nH]c23)c(OCC2CC2)n1 [Example 19, (E)-3-(2-(cyclopropylmethoxy)-6-isopropylpyridin-3-yl)-N-(2-oxo-2,3-dihydro-1H-benzo[d]imidazol-4-yl)acrylamide]
–	217	CC(C)(C)c1ccc(/C=C/C(=O)Nc2cccc3[nH]c(=O)[nH]c23)c(OCC2CC2)n1 [Example 23, (E)-3-(6-(tert-butyl)-2-(cyclopropylmethoxy)pyridin-3-yl)-N-(2-oxo-2,3-dihydro-1H-benzo[d]imidazol-4-yl)acrylamide]
–	> 100	O=C(/C=C/c1ccc(C(F)(F)F)nc1SCC1CC1)Nc1cccc2[nH]c(=O)[nH]c12 [Example 28, (E)-3-(2-((cyclopropylmethyl)thio)-6-(trifluoromethyl)pyridin-3-yl)-N-(2-oxo-2,3-dihydro-1H-benzo[d]imidazol-4-yl)acrylamide]
–	> 100	O=C(/C=C/c1ccc(C(F)(F)F)nc1SC1CCCCC1)Nc1cccc2[nH]c(=O)[nH]c12 [Example 29, (E)-3-(2-(cyclohexylthio)-6-(trifluoromethyl)pyridin-3-yl)-N-(2-oxo-2,3-dihydro-1H-benzo[d]imidazol-4-yl)acrylamide]
–	178	CC(C)(C)CCc1nc(C(F)(F)F)ccc1/C=C/C(=O)Nc1cccc2[nH]c(=O)[nH]c12 [Example 40, (E)-3-(2-(3,3-dimethylbutyl)-6-(trifluoromethyl)pyridin-3-yl)-N-(2-oxo-2,3-dihydro-1H-benzo[d]imidazol-4-yl)acrylamide]
–	123	O=C(/C=C/c1ccc(C(F)(F)F)nc1C1CCCC1)Nc1cccc2[nH]c(=O)[nH]c12 [Example 41, (E)-3-(2-cyclopentyl-6-(trifluoromethyl)pyridin-3-yl)-N-(2-oxo-2,3-dihydro-1H-benzo[d]imidazol-4-yl)acrylamide]
–	> 160	CC(C)c1cc(/C=C/C(=O)Nc2cccc3[nH]c(=O)[nH]c23)n(-c2cccc(Cl)c2)n1 [Example 51, (E)-3-(1-(3-chlorophenyl)-3-isopropyl-1H-pyrazol-5-yl)-N-(2-oxo-2,3-dihydro-1H-benzo[d]imidazol-4-yl)acrylamide]
–	> 160	CC1(c2cc(/C=C/C(=O)Nc3cccc4[nH]c(=O)[nH]c34)n(-c3cccc(Cl)c3)n2)CC1 [Example 52, (E)-3-(1-(3-chlorophenyl)-3-(1-methylcyclopropyl)-1H-pyrazol-5-yl)-N-(2-oxo-2,3-dihydro-1H-benzo[d]imidazol-4-yl)acrylamide]
–	> 160	CC(C)c1nc(-c2cccc(Cl)c2)c(/C=C/C(=O)Nc2cccc3[nH]c(=O)[nH]c23)s1 [Example 55, (E)-3-(4-(3-chlorophenyl)-2-isopropylthiazol-5-yl)-N-(2-oxo-2,3-dihydro-1H-benzo[d]imidazol-4-yl)acrylamide]
–	103	CC(C)(C)c1nc(-c2cccc(Cl)c2)c(/C=C/C(=O)Nc2cccc3[nH]c(=O)[nH]c23)s1 [Example 58, (E)-3-(2-(tert-butyl)-4-(3-chlorophenyl)thiazol-5-yl)-N-(2-oxo-2,3-dihydro-1H-benzo[d]imidazol-4-yl)acrylamide]
–	> 160	CC(F)(F)c1cc(C2CC2C(=O)Nc2cccc3[nH]c(=O)[nH]c23)n(-c2cccc(Cl)c2)n1 (centres unmarked) [Example 64, 2-(1-(3-chlorophenyl)-3-(1,1-difluoroethyl)-1H-pyrazol-5-yl)-N-(2-oxo-2,3-dihydro-1H-benzo[d]imidazol-4-yl)cyclopropane-1-carboxamide]
–	> 160	CC(C)c1cc(C2CC2C(=O)Nc2cccc3[nH]c(=O)[nH]c23)n(-c2cccc(Cl)c2)n1 (centres unmarked) [Example 65, 2-(1-(3-chlorophonyl)-3-isopropyl-1H-pyrazol-5-yl)-N-(2-oxo-2,3-dihydro-1H-benzo[d]imidazol-4-yl)cyclopropane-1-carboxamide]
–	> 160	O=C(Nc1cccc2[nH]c(=O)[nH]c12)C1CC1c1cc(C2CC2)nn1-c1cccc(Cl)c1 (centres unmarked) [Example 66, 2-(1-(3-chlorophenyl)-3-cyclopropyl-1H-pyrazol-5-yl)-N-(2-oxo-2,3-dihydro-1H-benzo[d]imidazol-4-yl)cyclopropane-1-carboxamide]
–	> 160	CC1(c2cc(C3CC3C(=O)Nc3cccc4[nH]c(=O)[nH]c34)n(-c3cccc(Cl)c3)n2)CC1 (centres unmarked) [Example 67, 2-(1-(3-chlorophenyl)-3-(1-methylcyclopropyl)-1H-pyrazol-5-yl)-N-(2-oxo-2,3-dihydro-1H-benzo[d]imidazol-4-yl)cyclopropane-1-carboxamide]
–	139	CC(C)(C)c1cc(C2CC2C(=O)Nc2cccc3[nH]c(=O)[nH]c23)n(-c2cccc(Cl)c2)n1 (centres unmarked) [Example 68, 2-(3-(tert-butyl)-1-(3-chlorophenyl)-1H-pyrazol-5-yl)-N-(2-oxo-2,3-dihydro-1H-benzo[d]imidazol-4-yl)cyclopropane-1-carboxamide]

Structure (SMILES)	hTRPV1 pH (%, 3 μM) [1] [%]	IC50 [2] [nM]
CCCCOc1nc(C(F)(F)F)ccc1/C=C/C(=O)Nc1cccc2[nH]c(=O)[nH]c12 [Example 8, (E)-3-(2-butoxy-6-(trifluoromethyl)pyridin-3-yl)-N-(2-oxo-2,3-dihydro-1H-benzo[d]imidazol-4-yl)acrylamide]	81.24	27.3
O=C(/C=C/c1ccc(C(F)(F)F)nc1OC1CCC1)Nc1cccc2[nH]c(=O)[nH]c12 [Example 11, (E)-3-(2-cyclobutoxy-6-(trifluoromethyl)pyridin-3-yl)-N-(2-oxo-2,3-dihydro-1H-benzo[d]imidazol-4-yl)acrylamide]	88.23	37.8

Reference: patent US12653814B2, “Benzimidazolone-based cinnamamide derivative as TRPV1 antagonist and pharmaceutical composition for treatment or prevention of pain containing same as active ingredient” (JMACKEM CO., LTD, priority 2020, dated 2026)
